In ChEMBL document CHEMBL5729562, “Proteasome activity enhancing compounds” (2023) one finds IC50 data, which are given here for two compounds.

Structures are written as SMILES.

The target of the assay is Ubiquitin carboxyl-terminal hydrolase 14 (Homo sapiens, UniProt P54578). Nature of the assay: Usp14 Inhibition Assay: Usp14 Inhibition Assay was described in B. H. Lee et al. Nature 2010, 467 (9), 179.
Chain of Ubiquitin carboxyl-terminal hydrolase 14 (P54578 whole entry): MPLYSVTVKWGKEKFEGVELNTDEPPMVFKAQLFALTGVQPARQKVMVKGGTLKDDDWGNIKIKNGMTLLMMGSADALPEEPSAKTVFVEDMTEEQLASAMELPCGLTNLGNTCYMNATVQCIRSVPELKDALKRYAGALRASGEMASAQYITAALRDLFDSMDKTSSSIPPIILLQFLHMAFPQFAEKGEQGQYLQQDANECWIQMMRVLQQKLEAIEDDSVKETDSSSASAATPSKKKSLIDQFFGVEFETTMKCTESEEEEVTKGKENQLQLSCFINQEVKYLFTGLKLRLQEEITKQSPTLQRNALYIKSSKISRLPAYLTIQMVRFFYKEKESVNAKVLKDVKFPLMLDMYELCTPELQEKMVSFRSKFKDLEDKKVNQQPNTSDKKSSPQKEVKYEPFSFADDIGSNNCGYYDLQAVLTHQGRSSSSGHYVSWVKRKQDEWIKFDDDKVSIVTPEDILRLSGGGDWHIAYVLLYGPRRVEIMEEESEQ

For the compound `Cc1c(C(=O)CN2C3CC4CC2CC(C3)O4)cc(CCCCC#N)n1-c1ccc(C#N)cc1`, the IC50 is less than 50 nM. As for `Cc1c(C(=O)CN2C3CCC2CC3)cc(C#CCCC#N)n1-c1ccc(C#N)cc1`, the figure is less than 50 nM.
